Patent US8592161B2, “Mutational profiles in HIV-1 protease correlated with phenotypic drug resistance” (Janssen R&D Ireland, priority 2002, dated 2013)

Key:
Format in all cases: cell-based
[1] = test system: HIV-1 strain selected with Comp 1 (20 nM, 94 days), protease R41G/R V82V/I; assay: In vitro antiviral activity in acutely infected MT4 cells, selected strain
Description: (§1) Determination of the antiviral activity of a compound was done as described in Pauwels R. et al. (J Virol Methods 1988; 20(4):309-21). Various concentrations of the test compounds were brought into each well of a flat-bottom microtiter plate. Subsequently, HIV and MT4 cells were added to a final concentration of 200-250 50% cell culture infectious doses (CCID50)/well and 30,000 cells/well, respectively. After 5 days of incubation (37° C., 5% CO2), the cytopathic effect of the replicating virus was determined by the tetrazolium colorimetric MTT method. The dose protecting 50% of the cells from virus cytopathic effect was defined as the EC50, while the dose achieving 90% protection was defined as the EC90.
(§2) MT4-LTR-EGFP cells were infected at a multiplicity of infection (MOI) of 0.01 to 0.001 CCID50/cell in the presence of inhibitor. The starting concentration of the inhibitor was two to tee times the EC50, a suboptimal concentration. The cultures were sub-cultivated and scored microscopically on virus-induced fluorescence and cytopathicity every 3-4 days. The cultures were sub-cultivated in the presence of the same compound concentration until signs of virus replication were observed. The escaping virus was further cultivated in the presence of the same inhibitor concentration in order to enrich the population in resistant variants. If full virus breakthrough was observed the supernatant was collected and stored (new virus strain). Afterwards, the same virus was challenged with a higher compound concentration in order to select variants able to grow in the presence of as high as possible inhibitor concentrations. From the new viruses, a virus stock was grown in the absence of inhibitor.
(§3) In vitro drug selection experiments starting from wild-type HIV-1 under pressure of compound 1, compound 2, and Nelfinavir (NFV) have been performed. Tables 1, 2, 3, 4, and 5 show the genotypic and phenotypic characterization of the selected strains.

[2] = test system: HIV-1 strain selected with Comp 1 (40 nM, 161 days), protease R41G V82I; assay: as above
Description: as §1, §2, §3

[3] = test system: HIV-1 strain selected with Comp 1 (40 nM, 175 days), protease R41G V82I; assay: as above
Description: as §1, §2, §3

[4] = test system: HIV-1/LAI strain selected with Comp 1 (100 nM, 139 days), protease S37S/N R41R/K K70E; assay: as above
Description: as §1, §2, §3

[5] = test system: HIV-1/LAI strain selected with Comp 1 (100 nM, 195 days), protease S37N R41S K70E; assay: as above
Description: as §1, §2, §3

[6] = test system: HIV-1/LAI strain selected with Comp 1 (200 nM, 328 days), protease S37N R41S K70E; assay: as above
Description: as §1, §2, §3

[7] = test system: HIV-1/LAI strain selected with Comp 1 (30 nM, 70 days), protease K70E; assay: as above
Description: as §1, §2, §3

[8] = test system: HIV-1/LAI strain selected with Compound 1 (100 nM, 188 days), protease R41T K70E; assay: as above
Description: as §1, §2, §3

[9] = test system: HIV-1/LAI strain selected with Compound 1 (30 nM, 45 days), protease R41T; assay: as above
Description: as §1, §2, §3

[10] = test system: HIV-1/LAI strain selected with Compound 2 (100 nM), protease R41I; Table 3; assay: as above; conditions: Human immunodeficiency virus 1, R41I strain selected with Compound 2 100 nM (head lists 116, 200, 264 days; assignment unclear), read-out: median EC50
Description: as §1, §2, §3

[11] = test system: HIV-1/LAI strain selected with NFV (1000 nM, 35 days), protease D30N M46I; assay: as above
Description: as §1, §2, §3

[12] = test system: HIV-1/LAI strain selected with NFV (9000 nM, 11l days), protease L10F D30N R41R/K K45I/K M46I V77I I84V/I I85V/I N88D; assay: as above
Description: as §1, §2, §3

[13] = test system: HIV-1/LAI strain selected with NFV (9000 nM, 140 days), protease L10F D30N R41R/K K45I/K M46I V77I I84V N88D; assay: as above
Description: as §1, §2, §3

[14] = test system: HIV-1 starting strain of Table 4 (no compound, no mutations); assay: In vitro antiviral activity in acutely infected MT4 cells, starting strain
Description: as §1, §2, §3

Cc1c(O)cccc1C(=O)N[C@@H](CSc1ccccc1)[C@H](O)CN1C[C@H]2CCCC[C@H]2C[C@H]1C(=O)NC(C)(C)C [Nelfinavir]
EC50 ([1]; Human immunodeficiency virus 1, Table 4, strain R41G/R V82V/I (Comp 1 20 nM, 94 days), read-out: median EC50): 5.7 nM
median FC (fold change in EC50 as compared to wild type) ([1]; Table 4, strain R41G/R V82V/I (Comp 1 20 nM, 94 days)): 0
EC50 ([2]; Human immunodeficiency virus 1, Table 4, strain R41G V82I (Comp 1 40 nM, 161 days), read-out: median EC50): 11 nM
median FC (fold change in EC50 as compared to wild type) ([2]; Table 4, strain R41G V82I (Comp 1 40 nM, 161 days)): 0
EC50 ([3]; Human immunodeficiency virus 1, Table 4, strain R41G V82I (Comp 1 40 nM, 175 days), read-out: median EC50): 16 nM
median FC (fold change in EC50 as compared to wild type) ([3]; Table 4, strain R41G V82I (Comp 1 40 nM, 175 days)): 0
EC50 ([4]; Human immunodeficiency virus 1, Table 2, strain S37S/N R41R/K K70E (Comp 1 100 nM, 139 days), read-out: median EC50): 9.7 nM
median FC (fold change in EC50 as compared to wild type) ([4]; Table 2, strain S37S/N R41R/K K70E (Comp 1 100 nM, 139 days)): 0.3
EC50 ([5]; Human immunodeficiency virus 1, Table 2, strain S37N R41S K70E (Comp 1 100 nM, 195 days), read-out: median EC50): 9.5 nM
median FC (fold change in EC50 as compared to wild type) ([5]; Table 2, strain S37N R41S K70E (Comp 1 100 nM, 195 days)): 0.3
EC50 ([6]; Human immunodeficiency virus 1, Table 2, strain S37N R41S K70E (Comp 1 200 nM, 328 days), read-out: median EC50): 1.9 nM
median FC (fold change in EC50 as compared to wild type) ([6]; Table 2, strain S37N R41S K70E (Comp 1 200 nM, 328 days)): 0.1
EC50 ([7]; Human immunodeficiency virus 1, Table 2, strain K70E (Comp 1 30 nM, 70 days), read-out: median EC50): 39 nM
median FC (fold change in EC50 as compared to wild type) ([7]; Table 2, strain K70E (Comp 1 30 nM, 70 days)): 1
EC50 ([8]; Human immunodeficiency virus 1, Table 1, strain R41T K70E (Compound 1 100 nM, 188 days), read-out: median EC50): 37 nM
median FC (fold change in EC50 as compared to wild type) ([8]; Table 1, strain R41T K70E (Compound 1 100 nM, 188 days)): 1
EC50 ([9]; Human immunodeficiency virus 1, Table 1, strain R41T (Compound 1 30 nM, 45 days), read-out: median EC50): 32 nM
median FC (fold change in EC50 as compared to wild type) ([9]; Table 1, strain R41T (Compound 1 30 nM, 45 days)): 1
EC50 [10]: 16 nM
EC50 ([11]; Human immunodeficiency virus 1, Table 5, strain D30N M46I (NFV 1000 nM, 35 days), read-out: median EC50): 330 nM
median FC (fold change in EC50 as compared to wild type) ([11]; Table 5, strain D30N M46I (NFV 1000 nM, 35 days)): 9
EC50 ([12]; Human immunodeficiency virus 1, Table 5, strain L10F D30N R41R/K K45I/K M46I V77I I84V/I I85V/I N88D (NFV 9000 nM, 11l days), read-out: median EC50): 7200 nM
median FC (fold change in EC50 as compared to wild type) ([12]; Table 5, strain L10F D30N R41R/K K45I/K M46I V77I I84V/I I85V/I N88D (NFV 9000 nM, 11l days)): 200
EC50 ([13]; Human immunodeficiency virus 1, Table 5, strain L10F D30N R41R/K K45I/K M46I V77I I84V N88D (NFV 9000 nM, 140 days), read-out: median EC50): 6800 nM
median FC (fold change in EC50 as compared to wild type) ([13]; Table 5, strain L10F D30N R41R/K K45I/K M46I V77I I84V N88D (NFV 9000 nM, 140 days)): 200
EC50 ([14]; Human immunodeficiency virus 1, starting strain HIV-1, no compound, read-out: median EC50): 31 nM
median FC (fold change in EC50 as compared to wild type) ([14]; starting strain HIV-1, no compound): 1
